Measurements published in article PMC6358866 (International Journal of Molecular Sciences, 2019).

System: Staphylococus aureus ATCC 6538 biofilm
Assay: Effect of the lipopeptide on lens liquids against biofilms on 96-well polystyrene plates
Assay type: cell-based, Staphylococcus aureus
Settings: SA biofilm on polystyrene, lipopeptide alone in PBS, 24 h
Method: Bacterial strains were obtained from the Polish Collection of Microorganisms (Polish Academy of Science, Wroclaw, Poland). Three Gram-positive and two Gram-negative strains linked with CL-related infections were chosen for the study (Staphylococus aureus ATCC 6538, Staphylococcus epidermidis ATCC 14990, Pseudomonas aeruginosa ATCC 9027, Escherichia coli ATCC 25922, and Enterococcus faecalis ATCC 29212). The bacteria were cultured in a Mueller Hinton Broth II (MHB, Biocorp, Warsaw, Poland) overnight, under aerobic conditions at 37 °C. […]
Bacterial suspensions were added to 96-well plates (Kartell, Noviglio, Italy) at initial inoculums of ca. 5 × 10^8 CFU/mL and incubated under aerobic conditions with shaking (120 rpm) at 37 °C for 24 h. […] After 1.5 h of incubation, the absorbance was measured at 570 and 600 nm using a microplate reader (Thermo Fisher Scientific, Waltham, MA, USA). […] The metabolic activity of bacteria in the samples was measured according to the following formula:
Positive controls (100%) were wells with pre-grown biofilms where the MHB II was replaced with pure PBS, while negative controls were wells with pure MHB II (also replaced with PBS). After 24 h of incubation (aerobic conditions, 120 rpm shaking, 37 °C), the solutions were replaced with resazurin in MHB II and the results were read and presented as described in Section 4.3.

Substance: (C10)2-KKKK-NH2 [Lipopeptide]
- concentration at which highly active against biofilm: 32 mg/L
